Legend:
B-Raf = B-Raf (Homo sapiens (Human), UniProt P15056); assay: KINOMEscan binding of kinase to standard ligand
Experimental: (§1) Kinase enzyme binding activities of compounds disclosed herein may be determined using a proprietary assay which measures active site-directed competition binding to an immobilized ligand (Fabian, M. A. et al., Nature Biotechnol., 2005, 23:329-336). These assays may be conducted by DiscoverX (formerly Ambit; San Diego, Calif.). The percentage inhibition produced by incubation with a test compound may be calculated relative to the non-inhibited control.

B-Raf (V600E) = B-Raf (V600E) (Homo sapiens (Human), UniProt P15056, V600E); assay: KINOMEscan binding of kinase to standard ligand
Experimental: as §1

non-mutant kinases = assay: KinomeScan selectivity scores; assay type: binding; conditions: for number of individual kinase hits S(1): % Ctrl <1; for number of individual kinase hits S(10): % Ctrl <10; for number of individual kinase hits S(35): % Ctrl <35; for selectivity compared to the Reference Compound: evidenced by lower selectivity scores
Experimental: These assays may be conducted by DiscoverX (formerly Ambit; San Diego, Calif.). The percentage inhibition produced by incubation with a test compound may be calculated relative to the non-inhibited control.

TNBS-induced colitis = TNBS-induced colitis in mice; assay type: in vivo, BDF1 mice; conditions: conducted over 2 days; oral
Experimental: Non-fasted, 10-12 week old, male BDF1 mice are dosed by oral gavage twice daily with either vehicle (5 mL/kg), reference item (Budesonide 2.5 mg/kg) or test compound (1 or 5 mg/kg) one day before (Day −1) stimulation of the inflammatory response by treatment with 2,4,6-trinitrobenzenesulphonic acid (TNBS) (15 mg/mL in 50% ethanol/50% saline). On Day 0 of the study TNBS (200 μL) is administered intra-colonically via a plastic catheter with BID dosing of the vehicle, reference or test compound continuing for 2 or 4 days. During the study, animals are weighed every day and stool observations are made and recorded as a score, based on stool consistency. At the time of sacrifice on Day 2 (or Day 4), the large intestine is removed and the length and weight recorded. Sections of the colon are taken for histopathology scoring to determine disease severity.

[1] = test system: adoptive transfer colitis; assay: Adoptive transfer in mice; assay type: in vivo, SCID mice; conditions: for % Inhibition: colon weight:length, induction window between naïve and vehicle animals; for levels of pro-inflammatory cytokines in samples of colon tissue: adoptive transfer model
Experimental: On Study day 0, female Balb/C mice are terminated and spleens obtained for CD45RB^high cell isolation (Using SCID IBD cell Separation protocol). Approximately 4×10^5 cells/mL CD45RB^high cells are then injected intraperitoneally (100 μL/mouse) into female SCID animals. On study day 14, mice are weighed and randomized into treatment groups based on body weight. On Day 14, compounds are administered BID, via oral gavage, in a peanut oil vehicle at the dose levels outlined below in Tables 6a and 6b and a dose volume of 5 mL/kg. Treatment continues until study day 42, at which point the animals are necropsied 4 hours after the morning administration. The colon length and weight are recorded and used as a secondary endpoint in the study as a measurement of colon oedema. The colon is then divided into six cross-sections, four of which are used for histopathology scoring (primary endpoint) and two are homogenised for cytokine analysis. Data shown is the % inhibition of the induction window between nave animals and vehicle animals, where higher inhibition implies closer to the non-diseased, nave, phenotype.

[2] = test system: intestinal mucosa biopsies from ulcerative colitis patients; assay: Human biopsy assay (cytokine release from intestinal mucosa biopsies); assay type: cell-based; conditions: 1 μg/mL, 24 hours
Experimental: Intestinal mucosa biopsies are obtained from the inflamed regions of the colons of IBD patients. The biopsy material is cut into small pieces (2-3 mm) and placed on steel grids in an organ culture chamber at 37° C. in a 5% CO2/95% O2 atmosphere in serum-free media. DMSO control or test compounds at the desired concentration are added to the tissue and incubated for 24 hr in the organ culture chamber. The supernatant is harvested for determination of IL-6, IL-8, IL-1β and TNFα levels by R&D ELISA.

[3] = test system: endotoxin-induced uveitis; assay: Endotoxin-induced uveitis in rats; assay type: in vivo, Lewis rats; conditions: rats treated with intravitreal endotoxin LPS
Experimental: Male, Lewis rats (6-8 weeks old, Charles River UK Limited) are housed in cages of 3 at 19-21° C. with a 12 h light/dark cycle (07:00/19:00) and fed a standard diet of rodent chow and water ad libitum. Non-fasted rats are weighed, individually identified on the tail with a permanent marker, and receive a single intravitreal administration into the right vitreous humor (5 μL dose volume) of 100 ng/animal of LPS (Escherichia coli 0111:B4 prepared in PBS, Sigma Aldrich, UK) using a 32-gauge needle. Untreated rats are injected with PBS. […] Following euthanasia, the right eye of each animal is enucleated and dissected into front (anterior) and back (posterior) sections around the lens. Each section is weighed and homogenised in 500 μL of sterile phosphate buffered saline followed by 20 minutes centrifugation at 12000 rpm at 4° C.

[4] = test system: Salmonella typhimurium, strains TA98 and TA100; assay: Mutagenicity assessment (bacterial reverse mutation screen); assay type: cell-based; conditions: TA98 and TA100, presence or absence of S-9 mix
Experimental: Studies were conducted by Sequani (Ledbury, Herefordshire, UK) to assess compounds of the invention for their ability to induce mutations in two histidine dependent auxotrophic mutants of Salmonella typhimurium, strains TA98 and TA100 in vitro.
The mutation screen was conducted using the plate incorporation method and was performed in both the presence and absence of S-9 mix (a liver post-mitochondrial fraction derived from the livers of Aroclor 1254 treated rats). The bacteria were exposed to test compounds dissolved in dimethylsulphoxide, which solvent was also used as the negative control. The dose levels used were 0.32, 1.6, 8, 40, 200, 1000 or 5000 μg/plate.

Sequence of B-Raf (P15056 whole entry): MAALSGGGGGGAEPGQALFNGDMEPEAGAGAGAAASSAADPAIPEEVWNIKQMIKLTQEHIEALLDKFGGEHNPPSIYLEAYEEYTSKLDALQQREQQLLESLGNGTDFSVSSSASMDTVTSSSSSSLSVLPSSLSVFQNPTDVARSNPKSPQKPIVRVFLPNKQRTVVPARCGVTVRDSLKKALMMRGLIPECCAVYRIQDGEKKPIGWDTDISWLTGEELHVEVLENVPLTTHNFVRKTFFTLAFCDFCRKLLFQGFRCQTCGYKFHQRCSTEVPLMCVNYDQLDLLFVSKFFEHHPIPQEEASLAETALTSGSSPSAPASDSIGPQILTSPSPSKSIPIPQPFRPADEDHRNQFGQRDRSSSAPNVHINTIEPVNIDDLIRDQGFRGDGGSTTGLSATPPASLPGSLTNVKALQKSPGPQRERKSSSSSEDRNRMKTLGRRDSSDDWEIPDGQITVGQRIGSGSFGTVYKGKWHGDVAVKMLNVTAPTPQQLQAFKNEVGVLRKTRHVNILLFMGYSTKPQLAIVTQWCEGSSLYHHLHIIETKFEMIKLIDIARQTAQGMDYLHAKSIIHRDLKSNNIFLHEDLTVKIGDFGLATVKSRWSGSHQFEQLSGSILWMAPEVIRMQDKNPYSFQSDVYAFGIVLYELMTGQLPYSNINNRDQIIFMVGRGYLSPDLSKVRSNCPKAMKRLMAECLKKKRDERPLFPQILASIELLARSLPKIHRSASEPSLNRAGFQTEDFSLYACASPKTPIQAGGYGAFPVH
Sequence of B-Raf (V600E) (P15056 whole entry V600E): as the sequence (P15056 whole entry) above, with V600E counted along it

Row | SMILES | effect on the binding of B-Raf to its standard ligand (B-Raf) | effect on the binding of B-Raf (V600E) to its standard ligand (B-Raf (V600E)) | activity in TNBS model of colonic inflammation (histopathology analysis) (TNBS-induced colitis) | cytokine levels in anterior and posterior segments of the eyes [3] | increases in revertant colonies [4] | also measured
1 | COCCOCCOCCNC(=O)c1cc(Nc2cc(Oc3ccc(NC(=O)Nc4cc(C(C)(C)C)cc(NS(C)(=O)=O)c4OC)c4ccccc34)ccn2)cc(OC)c1 [Example 3, 3-((4-((4-(3-(5-(tert-Butyl)-2-methoxy-3-(methylsulfonamido)phenyl)ureido)naphthalen-1-yl)oxy)pyridin-2-yl)amino)-5-methoxy-N-(2-(2-(2-methoxyethoxy)ethoxy)ethyl)benzamide] | did not have any significant effect | did not have any significant effect | displayed substantial activity | – | – | number of individual kinase hits S(1) (non-mutant kinases; 50 nM): 0; number of individual kinase hits S(10) (non-mutant kinases; 50 nM): 9; number of individual kinase hits S(35) (non-mutant kinases; 50 nM): 36; number of individual kinase hits S(1) (non-mutant kinases; 500 nM): 18; number of individual kinase hits S(10) (non-mutant kinases; 500 nM): 59; number of individual kinase hits S(35) (non-mutant kinases; 500 nM): 93; selectivity compared to the Reference Compound (non-mutant kinases): substantially improved selectivities; activity in T cell driven model of colonic inflammation (ratios of colon weight to length) ([1]; adoptive transfer): displayed significant activity
2 | COCCOCCOCCOc1cc(Nc2nccc(Oc3ccc(NC(=O)Nc4cc(C(C)(C)C)cc(NS(C)(=O)=O)c4OC)c4ccccc34)n2)cc(OC)c1 [Example 4, N-(5-(tert-Butyl)-2-methoxy-3-(3-(4-((2-((3-methoxy-5-(2-(2-(2-methoxyethoxy)ethoxy)-ethoxy)phenyl)amino)pyrimidin-4-yl)oxy)naphthalen-1-yl)ureido)phenyl)methanesulfonamide] | did not have any significant effect | did not have any significant effect | displayed substantial activity | significantly reduced cytokine levels | no dose-related or statistically significant increases in revertant colonies | cytokine (IL-1β, IL-6 and IL-8) release compared to the DMSO control [2]: significantly inhibited; % Inhibition ([1]; 0.3 mg/kg BID oral gavage): 62%; % Inhibition ([1]; 1 mg/kg BID oral gavage): 110%; levels of pro-inflammatory cytokines in samples of colon tissue [1]: significantly reduced levels of pro-inflammatory cytokines
3 | COc1cc(Nc2cc(Oc3ccc(NC(=O)Nc4cc(C(C)(C)C)cc(NS(C)(=O)=O)c4OC)c4ccccc34)ccn2)cc(C(=O)NCCN2CCOCC2)c1 [Example 27, 3-((4-((4-(3-(5-(tert-Butyl)-2-methoxy-3-(methylsulfonamido)phenyl)ureido)naphthalen-1-yl)oxy)pyridin-2-yl)amino)-5-methoxy-N-(2-morpholinoethyl)benzamide] | did not have any significant effect | did not have any significant effect | displayed substantial activity | significantly reduced cytokine levels | no dose-related or statistically significant increases in revertant colonies | cytokine (IL-1β, IL-6 and IL-8) release compared to the DMSO control [2]: significantly inhibited; % Inhibition ([1]; 3 mg/kg BID oral gavage): 99%; levels of pro-inflammatory cytokines in samples of colon tissue [1]: significantly reduced levels of pro-inflammatory cytokines
4 | CNC(=O)c1cc(C(C)(C)C)cc(NC(=O)Nc2ccc(Oc3ccnc(Nc4cc(OC)cc(OCCOCCOCCOC)c4)c3)c3ccccc23)c1OC [Example 29, 5-(tert-Butyl)-2-methoxy-3-(3-(4-((2-((3-methoxy-5-(2-(2-(2-methoxyethoxy)ethoxy)-ethoxy)phenyl)amino)pyridin-4-yl)oxy)naphthalen-1-yl)ureido)-N-methylbenzamide] | – | – | – | significantly reduced cytokine levels | – | –
5 | COCCOCCOCCOc1cc(Nc2cc(Oc3ccc(NC(=O)Nc4cc(C(C)(C)C)cc(C(N)=O)c4OC)c4ccccc34)ccn2)cc(OC)c1 [Example 34, 5-(tert-Butyl)-2-methoxy-3-(3-(4-((2-((3-methoxy-5-(2-(2-(2-methoxyethoxy)ethoxy)ethoxy)phenyl)amino)pyridin-4-yl)oxy)naphthalen-1-yl)ureido)benzamide] | – | – | displayed substantial activity | – | – | –
6 | COc1cc(Nc2cc(Oc3ccc(NC(=O)Nc4cc(C(C)(C)C)cc(NS(C)(=O)=O)c4OC)c4ccccc34)ccn2)cc(C(=O)NCCCN2CCOCC2)c1 [Example 66, 3-((4-((4-(3-(5-(tert-Butyl)-2-methoxy-3-(methylsulfonamido)phenyl)ureido)naphthalen-1-yl)oxy)pyridin-2-yl)amino)-5-methoxy-N-(3-morpholinopropyl)benzamide] | – | – | – | significantly reduced cytokine levels | – | –
7 | COc1c(NC(=O)Nc2ccc(Oc3ccnc(Nc4ccccc4)c3)c3ccccc23)cc(C(C)(C)C)cc1C(=O)NC1COC1 [Example 75, 5-(tert-Butyl)-2-methoxy-N-(oxetan-3-yl)-3-(3-(4-((2-(phenylamino)pyridin-4-yl)oxy)-naphthalen-1-yl)ureido)benzamide] | did not have any significant effect | did not have any significant effect | displayed substantial activity | significantly reduced cytokine levels | no dose-related or statistically significant increases in revertant colonies | number of individual kinase hits S(1) (non-mutant kinases; 50 nM): 2; number of individual kinase hits S(10) (non-mutant kinases; 50 nM): 14; number of individual kinase hits S(35) (non-mutant kinases; 50 nM): 39; number of individual kinase hits S(1) (non-mutant kinases; 500 nM): 15; number of individual kinase hits S(10) (non-mutant kinases; 500 nM): 55; number of individual kinase hits S(35) (non-mutant kinases; 500 nM): 91; selectivity compared to the Reference Compound (non-mutant kinases): substantially improved selectivities
8 | COc1cc(Nc2cc(Oc3ccc(NC(=O)Nc4cc(C(C)(C)C)cc(NS(C)(=O)=O)c4OC)c4ccccc34)ccn2)cc(C(=O)NCCN2CCN(C)CC2)c1 [Example 79, 3-((4-((4-(3-(5-(tert-Butyl)-2-methoxy-3-(methylsulfonamido)phenyl)ureido)naphthalen-1-yl)oxy)pyridin-2-yl)amino)-5-methoxy-N-(2-(4-methylpiperazin-1-yl)ethyl)benzamide] | – | – | displayed substantial activity | – | – | –

— patent US9790174B2, “Kinase inhibitors” (Respivert Limited, priority 2013, dated 2017)
